Data from patent publication US9901592B2 (priority 2008, dated 2018).
In brackets after ≈: the same amount, converted by molar mass. Read-outs that look alike come from different tables or passages of the source.

Experiments:
S. pyogenes = type: cell-based
S. pneumoniae = assay: microbe, parasite or virus in culture; type: cell-based; conditions: for MIC: Streptococcus pneumoniae
H. influenzae ATCC 49247 = assay: post-antibiotic effect (PAE) testing; conditions: H. influenzae ATCC 49247; 4X MIC; exposure 1 hour

For `CC[C@H]1OC(=O)[C@H](C)C(=O)[C@H](C)[C@@H](O[C@@H]2O[C@H](C)C[C@H](N(C)C)[C@H]2O)[C@](C)(OC)C[C@@H](C)C(=O)[C@H](C)[C@H]2N(CCCCn3cnc(-c4cccnc4)c3)C(=O)O[C@]12C` [TEL, telithromycin], the “single step mutation frequency” value (S. pyogenes; strain 2094 Macrolide-R [erm(A)], 2 × MIC) was 7.7 × 10^−8, the “single step mutation frequency” value (S. pyogenes; strain 2094 Macrolide-R [erm(A)], 4 × MIC) was <1.5 × 10^−10 and the “single step mutation frequency” value (S. pyogenes; strain 2094 Macrolide-R [erm(A)], 8 × MIC) was <1.5 × 10^−10. The “single step mutation frequency” value (S. pyogenes; strain 2132 Macrolide-S, 2 × MIC) was <8.3 × 10^−11, the “single step mutation frequency” value (S. pyogenes; strain 2132 Macrolide-S, 4 × MIC) was <8.3 × 10^−11 and the “single step mutation frequency” value (S. pyogenes; strain 2132 Macrolide-S, 8 × MIC) was <8.3 × 10^−11. The “strains with resistant clones / strains tested” value (S. pneumoniae; S. pneumoniae) was 5/8, the MIC (S. pneumoniae; read-out: Initial MIC, strain 24 Macrolide-R [erm(B)], parent) was 0.25 µg/mL (≈ 0.308 µM) and the MIC (S. pneumoniae; read-out: Initial MIC, strain 1076 Macrolide-R [erm(B)&mef(A)], parent) was 0.5 µg/mL (≈ 0.616 µM). It also gave an MIC (S. pneumoniae; read-out: Initial MIC, strain 1077 Macrolide-S, parent) of 0.004 µg/mL (≈ 0.00493 µM), an MIC (S. pneumoniae; read-out: Initial MIC, strain 1635 Macrolide-R [erm(A)], parent) of 0.004 µg/mL (≈ 0.00493 µM) and an MIC (S. pneumoniae; read-out: Initial MIC, strain 2686 Macrolide-R [L4 mutation], parent) of 0.06 µg/mL (≈ 0.0739 µM). The MIC (S. pneumoniae; read-out: Initial MIC, strain 3009 Macrolide-R [23SrRNA mutation], parent) was 0.016 µg/mL (≈ 0.0197 µM), the MIC (S. pneumoniae; read-out: Initial MIC, strain 3665 Macrolide-R [mef(A)], parent) was 0.125 µg/mL (≈ 0.154 µM) and the MIC (S. pneumoniae; read-out: Initial MIC, strain 7127 Macrolide-S [S20N in L4, A105V in L22], parent) was 0.008 µg/mL (≈ 0.00985 µM). It also gave an MIC (S. pneumoniae; read-out: MIC of parents of resistant clones, S. pneumoniae (CEM-101: 7 strains)) of 0.004 to 0.5 µg/mL, an MIC (S. pneumoniae; read-out: Parental MICs, S. pneumoniae, 8 strains with varying resistotypes) of 0.004 to 0.5 µg/mL (≈ 0.00493 to 0.616 µM) and an MIC (S. pneumoniae; read-out: Selected Resistance MIC, strain 24 Macrolide-R [erm(B)], after serial passages in the drug) of 32 µg/mL (≈ 39.4 µM). The MIC (S. pneumoniae; read-out: Selected Resistance MIC, strain 1076 Macrolide-R [erm(B)&mef(A)], after serial passages in the drug) was over 64 µg/mL, the MIC (S. pneumoniae; read-out: Selected Resistance MIC, strain 1077 Macrolide-S, after serial passages in the drug) was 0.25 µg/mL (≈ 0.308 µM) and the MIC (S. pneumoniae; read-out: Selected Resistance MIC, strain 1635 Macrolide-R [erm(A)], after serial passages in the drug) was 0.008 µg/mL (≈ 0.00985 µM). It also gave an MIC (S. pneumoniae; read-out: Selected Resistance MIC, strain 2686 Macrolide-R [L4 mutation], after serial passages in the drug) of 0.5 µg/mL (≈ 0.616 µM), an MIC (S. pneumoniae; read-out: Selected Resistance MIC, strain 3009 Macrolide-R [23SrRNA mutation], after serial passages in the drug) of 0.03 µg/mL (≈ 0.0369 µM) and an MIC (S. pneumoniae; read-out: Selected Resistance MIC, strain 3665 Macrolide-R [mef(A)], after serial passages in the drug) of 2 µg/mL (≈ 2.46 µM). For the same compound, the MIC (S. pneumoniae; read-out: Selected Resistance MIC, strain 7127 Macrolide-S [S20N in L4, A105V in L22], after serial passages in the drug) was 0.06 µg/mL (≈ 0.0739 µM), the “days until resistant clones (MIC increase)” value (S. pneumoniae; daily passages, min. 14, max. 50) was 14 to 38 days and the “Retest MIC after 10 Antibiotic-free Subcultures” value (S. pneumoniae; strain 24 Macrolide-R [erm(B)], clone selected with CEM-101) was 0.125 µg/mL. For the same compound, the “Retest MIC after 10 Antibiotic-free Subcultures” value (S. pneumoniae; strain 24 Macrolide-R [erm(B)], clone selected with TEL) was 16 µg/mL, the “Retest MIC after 10 Antibiotic-free Subcultures” value (S. pneumoniae; strain 1076 Macrolide-R [erm(B)&mef(A)], clone selected with CEM-101) was 32 µg/mL and the “Retest MIC after 10 Antibiotic-free Subcultures” value (S. pneumoniae; strain 1076 Macrolide-R [erm(B)&mef(A)], clone selected with TEL) was over 64 µg/mL. The “Retest MIC after 10 Antibiotic-free Subcultures” value (S. pneumoniae; strain 1077 Macrolide-S, clone selected with AZI) was 0.125 µg/mL, the “Retest MIC after 10 Antibiotic-free Subcultures” value (S. pneumoniae; strain 1077 Macrolide-S, clone selected with CEM-101) was 0.06a μg/ml and the “Retest MIC after 10 Antibiotic-free Subcultures” value (S. pneumoniae; strain 1077 Macrolide-S, clone selected with CLN) was 0.06 µg/mL. For the same compound, the “Retest MIC after 10 Antibiotic-free Subcultures” value (S. pneumoniae; strain 1077 Macrolide-S, clone selected with TEL) was 0.25 µg/mL, the “Retest MIC after 10 Antibiotic-free Subcultures” value (S. pneumoniae; strain 1635 Macrolide-R [erm(A)], clone selected with AZI) was 0.004 µg/mL and the “Retest MIC after 10 Antibiotic-free Subcultures” value (S. pneumoniae; strain 1635 Macrolide-R [erm(A)], clone selected with CEM-101) was 0.03 µg/mL. The “Retest MIC after 10 Antibiotic-free Subcultures” value (S. pneumoniae; strain 1635 Macrolide-R [erm(A)], clone selected with CLN) was 0.008 µg/mL, the “Retest MIC after 10 Antibiotic-free Subcultures” value (S. pneumoniae; strain 1635 Macrolide-R [erm(A)], clone selected with CLR) was 0.016 µg/mL and the “Retest MIC after 10 Antibiotic-free Subcultures” value (S. pneumoniae; strain 2686 Macrolide-R [L4 mutation], clone selected with CEM-101) was 0.25 µg/mL. For the same compound, the “Retest MIC after 10 Antibiotic-free Subcultures” value (S. pneumoniae; strain 2686 Macrolide-R [L4 mutation], clone selected with CLR) was 0.06 µg/mL, the “Retest MIC after 10 Antibiotic-free Subcultures” value (S. pneumoniae; strain 2686 Macrolide-R [L4 mutation], clone selected with TEL) was 0.5 µg/mL and the “Retest MIC after 10 Antibiotic-free Subcultures” value (S. pneumoniae; strain 3009 Macrolide-R [23SrRNA mutation], clone selected with CEM-101) was 0.06 µg/mL. For the same compound, the “Retest MIC after 10 Antibiotic-free Subcultures” value (S. pneumoniae; strain 3009 Macrolide-R [23SrRNA mutation], clone selected with CLR) was 0.06 µg/mL, the “Retest MIC after 10 Antibiotic-free Subcultures” value (S. pneumoniae; strain 3665 Macrolide-R [mef(A)], clone selected with CEM-101) was 0.25 µg/mL and the “Retest MIC after 10 Antibiotic-free Subcultures” value (S. pneumoniae; strain 3665 Macrolide-R [mef(A)], clone selected with CLR) was 0.06 µg/mL. The “Retest MIC after 10 Antibiotic-free Subcultures” value (S. pneumoniae; strain 3665 Macrolide-R [mef(A)], clone selected with TEL) was 0.25 µg/mL, the “Retest MIC after 10 Antibiotic-free Subcultures” value (S. pneumoniae; strain 7127 Macrolide-S [S20N in L4, A105V in L22], clone selected with AZI) was 0.016 µg/mL and the “Retest MIC after 10 Antibiotic-free Subcultures” value (S. pneumoniae; strain 7127 Macrolide-S [S20N in L4, A105V in L22], clone selected with CEM-101) was 0.06 µg/mL. For the same compound, the “Retest MIC after 10 Antibiotic-free Subcultures” value (S. pneumoniae; strain 7127 Macrolide-S [S20N in L4, A105V in L22], clone selected with CLN) was 0.008 µg/mL, the “Retest MIC after 10 Antibiotic-free Subcultures” value (S. pneumoniae; strain 7127 Macrolide-S [S20N in L4, A105V in L22], clone selected with CLR) was 0.008 µg/mL and the “Retest MIC after 10 Antibiotic-free Subcultures” value (S. pneumoniae; strain 7127 Macrolide-S [S20N in L4, A105V in L22], clone selected with TEL) was 0.03 µg/mL. For the same compound, the PAE (H. influenzae ATCC 49247) was 1.2 h.
